# Earlier results, collected in patent US20260034185A1, “POLYPODYIUM LEUCOTOMOS AND LARIX DECIDUA FOR USE IN THE PREVENTION OF DAMAGE FROM UVA, UVB, UVC AND/OR IR RAYS” (Unifarco S.p.A., priority 2022, published 2026).
# Molecular target: T1, caspase-1 (Homo sapiens, UniProt P29466)
# T1 construct: literature Promega G9951
# T1 sequence (P29466 120-297 limits assumed): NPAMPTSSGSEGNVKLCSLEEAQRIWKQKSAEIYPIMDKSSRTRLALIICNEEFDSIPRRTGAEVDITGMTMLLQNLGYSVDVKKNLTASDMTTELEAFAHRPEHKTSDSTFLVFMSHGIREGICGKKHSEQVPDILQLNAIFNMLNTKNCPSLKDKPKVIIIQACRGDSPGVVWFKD
# T1 sequence (P29466 317-404 limits assumed): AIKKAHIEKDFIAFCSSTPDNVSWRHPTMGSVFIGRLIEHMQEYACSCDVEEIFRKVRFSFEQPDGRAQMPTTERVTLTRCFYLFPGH
# Settings: inhibitor included in the Caspase-Glo 1 kit; does not substantially inhibit cross-reactive caspases
substance,measurement,value
Ac-YVAD-CHO,inhibition of caspase-1 activity,99%
